Results reported in patent US20070179121A1, “Method of treating pediatric patients with corticosteroids” (priority 2006, published 2007).

Tests used:
[1] = Skin safety evaluations: signs and symptoms of skin atrophy; assay type: in vivo, human (pediatric patients); conditions: for Patients who showed new signs of skin atrophy at Week 2 not present at Baseline: 5/62
Excerpt: (§1) Patients who met the inclusion/exclusion criteria were randomized to receive topical fluocinonide either qd or bid. Patients/guardians were instructed to apply a thin layer of the study product to all treatable areas once or twice daily for 14 days. If the areas to be treated were hairy, patients/guardians were instructed to part the hair to allow direct contact between the study product and the lesion. Patients/guardians were also instructed not to apply study product to lesions of the face, groin, perianal area, and axillae. At the end of Weeks 1, 2, and 4, patients returned to the study site in order for the investigator to perform designated evaluations, review treatment compliance and concomitant therapy, and to collect information regarding adverse events.
Specific skin safety evaluations were performed at each study visit with regard to all treated lesions by noting the presence or absence of the following 8 signs and symptoms of skin atrophy: telangiectasia, transparency, loss of elasticity, loss of normal skin markings, thinning, striae, pigmentation changes, and bruising.

[2] = Treatment-emergent adverse events; assay type: in vivo, human (pediatric patients)
Excerpt: as §1
Adverse events were coded using MedDRA terminology (a standard dictionary of terms used to clarify adverse events) and were described according to their intensity, duration and relationship to the study product.

## CC(=O)OCC(=O)[C@@]12OC(C)(C)O[C@@H]1C[C@H]1[C@@H]3C[C@H](F)C4=CC(=O)C=C[C@]4(C)[C@@]3(F)[C@@H](O)C[C@@]12C [Fluocinonide, pregna-1,4-diene-3,20-dione,21-(acetyloxy)-6,9-difluoro-11-hydroxy-16, 17-[(1-methylethylidene)bis(oxy)]-,(6α., 11β,16α)-]
[1]; Cohort 1 (12-<18), bid
  Number (%) of patients who showed new signs at Week 2 not present at Baseline: 2 (12.5) Number (%)
[1]; Cohort 1 (12-<18), qd
  Number (%) of patients who showed new signs at Week 2 not present at Baseline: 2 (13.3) Number (%)
[1]; Cohort 2 (6-<12), bid
  Number (%) of patients who showed new signs at Week 2 not present at Baseline: 1 (6.3) Number (%)
[1]; Cohort 2 (6-<12), qd
  Number (%) of patients who showed new signs at Week 2 not present at Baseline: 0 Number (%)
[1]; Cohort 3 (2-<6), bid
  Number (%) of patients who showed new signs at Week 2 not present at Baseline: 0 Number (%)
[1]; Cohort 3 (2-<6), qd
  Number (%) of patients who showed new signs at Week 2 not present at Baseline: 1 (6.7) Number (%)
[1]; Cohort 4 (3 months to <2 year), bid
  Number (%) of patients who showed new signs at Week 2 not present at Baseline: 2 (13.3) Number (%)
[1]; Cohort 4 (3 months to <2 year), qd
  Number (%) of patients who showed new signs at Week 2 not present at Baseline: 2 (12.5) Number (%)
[1]; bid treatment group overall
  Patients who showed new signs of skin atrophy at Week 2 not present at Baseline: 8.1%
[1]; qd treatment group overall
  Patients who showed new signs of skin atrophy at Week 2 not present at Baseline: 8.1%
[2]; Cohort 1, bid
  Burning Sensation NOS: 2 (11.8) Number (%)
  Dermatitis diaper: 0 (0) Number (%)
  Folliculitis: 1 (5.9) Number (%)
  Gastroenteritis NOS: 0 (0) Number (%)
  Headache: 3 (17.6) Number (%)
  Pain NOS: 2 (11.8) Number (%)
  Pyrexia: 0 (0) Number (%)
  Total no. of patients with AEs: 9 (52.9) Number (%)
  Upper respiratory tract infection: 0 (0) Number (%)
[2]; Cohort 1, qd
  Burning Sensation NOS: 0 (0) Number (%)
  Dermatitis diaper: 0 (0) Number (%)
  Folliculitis: 2 (12.5) Number (%)
  Gastroenteritis NOS: 0 (0) Number (%)
  Headache: 1 (6.3) Number (%)
  Pain NOS: 0 (0) Number (%)
  Pyrexia: 0 (0) Number (%)
  Total no. of patients with AEs: 6 (37.5) Number (%)
  Upper respiratory tract infection: 0 (0) Number (%)
[2]; Cohort 2, bid
  Burning Sensation NOS: 0 (0) Number (%)
  Dermatitis diaper: 0 (0) Number (%)
  Folliculitis: 0 (0) Number (%)
  Gastroenteritis NOS: 0 (0) Number (%)
  Headache: 0 (0) Number (%)
  Pain NOS: 0 (0) Number (%)
  Pyrexia: 0 (0) Number (%)
  Total no. of patients with AEs: 6 (37.5) Number (%)
  Upper respiratory tract infection: 1 (6.3) Number (%)
[2]; Cohort 2, qd
  Burning Sensation NOS: 0 (0) Number (%)
  Dermatitis diaper: 0 (0) Number (%)
  Folliculitis: 1 (6.3) Number (%)
  Gastroenteritis NOS: 0 (0) Number (%)
  Headache: 0 (0) Number (%)
  Pain NOS: 1 (6.3) Number (%)
  Pyrexia: 0 (0) Number (%)
  Total no. of patients with AEs: 4 (25.0) Number (%)
  Upper respiratory tract infection: 0 (0) Number (%)
[2]; Cohort 3, bid
  Burning Sensation NOS: 0 (0) Number (%)
  Dermatitis diaper: 0 (0) Number (%)
  Folliculitis: 0 (0) Number (%)
  Gastroenteritis NOS: 0 (0) Number (%)
  Headache: 0 (0) Number (%)
  Pain NOS: 0 (0) Number (%)
  Pyrexia: 0 (0) Number (%)
  Total no. of patients with AEs: 2 (13.3) Number (%)
  Upper respiratory tract infection: 0 (0) Number (%)
[2]; Cohort 3, qd
  Burning Sensation NOS: 0 (0) Number (%)
  Dermatitis diaper: 0 (0) Number (%)
  Folliculitis: 0 (0) Number (%)
  Gastroenteritis NOS: 0 (0) Number (%)
  Headache: 0 (0) Number (%)
  Pain NOS: 0 (0) Number (%)
  Pyrexia: 0 (0) Number (%)
  Total no. of patients with AEs: 3 (20) Number (%)
  Upper respiratory tract infection: 0 (0) Number (%)
[2]; Cohort 4, bid
  Burning Sensation NOS: 0 (0) Number (%)
  Dermatitis diaper: 0 (0) Number (%)
  Folliculitis: 0 (0) Number (%)
  Gastroenteritis NOS: 0 (0) Number (%)
  Headache: 0 (0) Number (%)
  Pain NOS: 0 (0) Number (%)
  Pyrexia: 2 (13.3) Number (%)
  Total no. of patients with AEs: 7 (46.7) Number (%)
  Upper respiratory tract infection: 1 (6.7) Number (%)
[2]; Cohort 4, qd
  Burning Sensation NOS: 0 (0) Number (%)
  Dermatitis diaper: 2 (12.5) Number (%)
  Folliculitis: 0 (0) Number (%)
  Gastroenteritis NOS: 2 (12.5) Number (%)
  Headache: 0 (0) Number (%)
  Pain NOS: 0 (0) Number (%)
  Pyrexia: 2 (12.5) Number (%)
  Total no. of patients with AEs: 8 (50.0) Number (%)
  Upper respiratory tract infection: 2 (12.5) Number (%)
[2]; all treated patients, 45 of 126
  Patients who reported at least one treatment-emergent adverse event (TEAE): 35.7%
[2]; whole study
  Deaths or other serious adverse events: No deaths or other serious adverse events
